Source: ChEMBL document CHEMBL1201862, “PubChem BioAssay data set” (2004)
“And” between values parts separate entries of the source, which are not always exact repeats. Equal entries are not always repeated.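 Briefly, cells in 96-well plates were exposed to five compound concentrations for 48 h, and endpoints were estimated by linear interpolation. Here, GI50 denotes the concentration required for 50% inhibition of growth.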 The source made the active and inactive calls. No stated cut-off is given here; in the data, active = GI50 up to about 1.1 µM and inactive = higher.

Columns and labels:
Experiment in all cases: DTP human tumour cell line panel, 48 h
SK-MEL-5 = test system: SK-MEL-5
T47D = test system: T47D
MDA-MB-231 = test system: MDA-MB-231
TK-10 = test system: TK-10
OVCAR-4 = test system: OVCAR-4
SK-MEL-28 = test system: SK-MEL-28
RXF 393 = test system: RXF 393
COLO 205 = test system: COLO 205
U-251 = test system: U-251
NCI-H226 = test system: NCI-H226
DU-145 = test system: DU-145
Hs-578T = test system: Hs-578T
SK-MEL-2 = test system: SK-MEL-2
HT-29 = test system: HT-29
K562 = test system: K562
MDA-MB-435 = test system: MDA-MB-435
A498 = test system: A498
UACC-62 = test system: UACC-62
HCT-116 = test system: HCT-116
NCI-H460 = test system: NCI-H460

SMILES	GI50 (SK-MEL-5)	GI50 (T47D)	GI50 (MDA-MB-231)	GI50 (TK-10)	GI50 (OVCAR-4)	GI50 (SK-MEL-28)	GI50 (RXF 393)	GI50 (COLO 205)	GI50 (U-251)	GI50 (NCI-H226)	GI50 (DU-145)	GI50 (Hs-578T)	GI50 (SK-MEL-2)	GI50 (HT-29)	GI50 (K562)	GI50 (MDA-MB-435)	GI50 (A498)	GI50 (UACC-62)	GI50 (HCT-116)	GI50 (NCI-H460)
COC(=O)c1onc(C2OC(C)(C)OC2C(O)COC(c2ccccc2)(c2ccccc2)c2ccccc2)c1C(=O)OC (stereo not given)	> 100 µM (inactive)	> 100 µM (inactive)	71.8 µM (inactive)	> 100 µM (inactive)	> 100 µM (inactive)	> 100 µM (inactive)	> 100 µM (inactive)	> 100 µM (inactive)	> 100 µM (inactive)	> 100 µM (inactive)	> 100 µM (inactive)	> 100 µM (inactive)	> 100 µM (inactive)	> 100 µM (inactive)	72.8 µM (inactive)	89.5 µM (inactive)	> 100 µM (inactive)	43.6 µM (inactive)	> 100 µM (inactive)	
O=c1[nH][nH]c(=O)n1Cc1ccccc1	> 100 µM (inactive)	> 100 µM (inactive)	> 100 µM (inactive)	> 100 µM (inactive)	> 100 µM (inactive)	> 100 µM (inactive)	> 100 µM (inactive)	> 100 µM (inactive)	> 100 µM (inactive)	> 100 µM (inactive)	> 100 µM (inactive)	> 100 µM (inactive)	> 100 µM (inactive)	> 100 µM (inactive)	> 100 µM (inactive)	> 100 µM (inactive)	> 100 µM (inactive)	> 100 µM (inactive)	> 100 µM (inactive)	> 100 µM (inactive)
CN(Cc1cnc2nc(N)nc(N)c2n1)c1ccc(C(=O)NCCCC(=O)O)cc1	49.2 µM (inactive)	> 100 µM (inactive)	> 100 µM (inactive)	> 69 µM (inactive)	> 100 µM (inactive)	> 100 µM (inactive)	> 100 µM (inactive)	> 100 µM (inactive)	77.3 µM (inactive)	> 37.5 µM (inactive)	8.49 µM (inactive)	> 92.3 µM (inactive)	> 100 µM (inactive)	> 100 µM (inactive)	1.2 µM (inactive)	> 25.4 µM (inactive)	> 100 µM (inactive)	12.6 µM (inactive)	3.39 µM (inactive)	7.24 µM (inactive)
COc1ccc2[nH]cc([C@@H]3C4CCC(C4)[C@H]3NCc3cccc(CN[C@H]4C5CCC(C5)[C@@H]4c4c[nH]c5ccc(OC)cc45)c3)c2c1	1.62 µM (inactive) and 1.55 µM (inactive)	1.72 µM (inactive) and 1.99 µM (inactive)	1.44 µM (inactive) and 1.2 µM (inactive)	1.63 µM (inactive) and 1.51 µM (inactive)	1.37 µM (inactive) and 1.32 µM (inactive)		1.36 µM (inactive) and 1.66 µM (inactive)	401 nM (active) and 577 nM (active)		2.01 µM (inactive) and 1.91 µM (inactive)	1.67 µM (inactive) and 1.68 µM (inactive)	1.71 µM (inactive) and 1.5 µM (inactive)	1.59 µM (inactive) and 1.55 µM (inactive)	230 nM (active) and 218 nM (active)	228 nM (active) and 178 nM (active)	520 nM (active) and 733 nM (active)	1.82 µM (inactive) and 1.78 µM (inactive)	1.8 µM (inactive) and 1.75 µM (inactive)	766 nM (active) and 678 nM (active)	340 nM (active) and 237 nM (active)
c1ccc(-c2cc(-c3cc(-c4ccccc4)[nH]n3)[nH]n2)cc1	> 100 µM (inactive)	> 100 µM (inactive)	> 100 µM (inactive)	> 100 µM (inactive)	> 100 µM (inactive)		> 100 µM (inactive)	> 100 µM (inactive)	> 100 µM (inactive)	> 100 µM (inactive)	> 100 µM (inactive)	> 100 µM (inactive)	> 100 µM (inactive)	> 100 µM (inactive)	> 100 µM (inactive)	> 100 µM (inactive)	> 100 µM (inactive)	> 100 µM (inactive)	> 100 µM (inactive)	> 100 µM (inactive)
CC(Nc1ccc(Cl)c(Cl)c1)c1ccncc1 (stereo not given)	16.7 µM (inactive)	51.6 µM (inactive)	16 µM (inactive)	31.9 µM (inactive)	58.2 µM (inactive)	35.7 µM (inactive)	17.6 µM (inactive)	16.5 µM (inactive)	19.9 µM (inactive)	17.9 µM (inactive)	30.2 µM (inactive)	> 10 µM (inactive)	22.9 µM (inactive)	23.7 µM (inactive)	45.3 µM (inactive)	29.4 µM (inactive)	20.1 µM (inactive)		16.6 µM (inactive)	16.6 µM (inactive)
Cc1ccccc1NC(=S)N/N=C(/c1ccccc1)c1ccccn1	0.0664 µM (active)	< 0.01 µM (active)	< 0.01 µM (active)	< 0.0295 µM (active)	0.0826 µM (active)	2.3 µM (inactive)	0.589 µM (active)	< 0.01 µM (active)	< 0.01 µM (active)	0.0295 µM (active)	0.838 µM (active)	13.2 µM (inactive)	3.36 µM (inactive)	< 0.0182 µM (active)	< 0.0282 µM (active)	0.757 µM (active)	0.398 µM (active)	0.171 µM (active)	< 0.01 µM (active)	0.0702 µM (active)
